In assay [1] the test system is MCF-7 cells. Nature of the assay: Breast Cancer Cell Viability Assays (MCF-7, CellTiter-Glo). The assay is classed as cell-based. Conditions: 5 days' compound exposure; for IC50: Homo sapiens, MCF7, 120 h. Put shortly:
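MCF-7 cells (320/well, RPMI with 10% FBS) exposed for 5 days to an eleven-point semilog series, 0.3–0.000003 μM final. Viability read by CellTiter-Glo luminescence, expressed as background-corrected percent of untreated cells.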
Background: Cellular ATP, detected with luciferase, serves as a proxy for viable cell number.

Assay [2] addresses T1, ER-α in MCF-7 cells (Homo sapiens, UniProt P03372).
T1 construct: endogenous in cells; host or cells: MCF-7
T1 sequence (P03372 1-595): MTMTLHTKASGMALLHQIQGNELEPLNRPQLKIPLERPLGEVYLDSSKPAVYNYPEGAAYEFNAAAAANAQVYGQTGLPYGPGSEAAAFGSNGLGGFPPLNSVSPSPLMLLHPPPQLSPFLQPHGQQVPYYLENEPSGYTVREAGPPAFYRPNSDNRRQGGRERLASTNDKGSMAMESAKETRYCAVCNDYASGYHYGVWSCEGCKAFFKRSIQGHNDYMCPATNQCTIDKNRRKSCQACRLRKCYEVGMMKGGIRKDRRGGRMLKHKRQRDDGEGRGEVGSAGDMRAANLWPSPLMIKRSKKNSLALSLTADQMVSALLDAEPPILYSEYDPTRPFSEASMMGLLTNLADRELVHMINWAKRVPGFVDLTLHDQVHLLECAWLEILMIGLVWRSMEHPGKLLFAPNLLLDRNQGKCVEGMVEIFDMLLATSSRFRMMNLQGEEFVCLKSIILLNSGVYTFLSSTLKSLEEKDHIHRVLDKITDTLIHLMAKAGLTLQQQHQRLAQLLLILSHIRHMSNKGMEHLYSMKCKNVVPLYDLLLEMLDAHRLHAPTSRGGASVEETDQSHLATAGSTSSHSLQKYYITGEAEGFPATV
Nature of the assay: Breast Cancer Cell ER-α In Cell Western Assay (SP1). The assay is classed as cell-based. The note with it: 4 or 24 hr post compound addition; for Emax: MCF7, SP1 antibody, read-out: ER-α In Cell Western Assay (SP1) Max Response; for DC50: SP1 antibody, read-out: ER-α In Cell Western Assay (SP1) IC50. The method, boiled down: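 MCF-7 cells in charcoal-stripped FBS medium, treated with 11-point semilog dilutions (0.3–0.000003 μM final) for 4 or 24 h. Fixed cells immunostained with SP1 antibody (800 nm) and DRAQ5 DNA (700 nm); ER/DNA ratio expressed as % of untreated cells.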

On to `COc1ncc(/C(=C(\c2ccc(/C=C/C(=O)O)cc2)c2ccc3[nH]nc(F)c3c2)C2CCC2)cc1Cl` [Example 136, (E)-3-(4-((E)-2-(5-Chloro-6-methoxypyridin-3-yl)-2-cyclobutyl-1-(3-fluoro-1H-indazol-5-yl)vinyl)phenyl)acrylic acid], for which, in assay [1], the “MCF7 Viability Assay Max Response” value is listed as “++ (++ = a single % value ≧ 40%)” and the IC50 (as a rule, the point on the concentration scale where inhibition reaches its midpoint) is not above 100 nM. Moreover, in assay [2], the Emax was not below 40% and the DC50 was not above 100 nM.
`COc1ncc(/C(=C(\c2ccc(/C=C/C(=O)O)cc2)c2ccc3[nH]nc(F)c3c2)C2CCC2)cc1F` [Example 137, (E)-3-(4-((E)-2-Cyclobutyl-1-(3-fluoro-1H-indazol-5-yl)-2-(5-fluoro-6-methoxypyridin-3-yl)vinyl)phenyl)acrylic acid]: in assay [1], the “MCF7 Viability Assay Max Response” value is on record as “++ (++ = a single % value ≧ 40%)” and the IC50 was not above 100 nM. In assay [2], the Emax was not below 40% and the DC50 was not above 100 nM.
`COc1ccc(/C(=C(\c2ccc(/C=C/C(=O)O)cc2)c2ccc3[nH]nc(F)c3c2)C2CCC2)cn1` [Example 138, (E)-3-(4-((E)-2-Cyclobutyl-1-(3-fluoro-1H-indazol-5-yl)-2-(6-methoxypyridin-3-yl)vinyl)phenyl)acrylic acid]: in assay [1], the “MCF7 Viability Assay Max Response” value was “++ (++ = a single % value ≧ 40%)” and the IC50 was not above 100 nM. For the same compound, in assay [2], the Emax is not below 40% and the DC50 was not above 100 nM.
With `CC/C(=C(/c1ccc(/C=C/C(=O)O)cc1)c1cccc2[nH]nc(F)c12)c1cnc(OC)cc1C` [Example 139, (E)-3-(4-((E)-1-(3-Fluoro-1H-indazol-4-yl)-2-(6-methoxy-4-methylpyridin-3-yl)but-1-en-1-yl)phenyl)acrylic acid], in assay [1], the “MCF7 Viability Assay Max Response” value is listed as “++ (++ = a single % value ≧ 40%)” and the IC50 was not above 100 nM. Further, in assay [2], the Emax is not below 40% and the DC50 is not above 100 nM.
For `COc1cc(C)c(/C(=C(/c2ccc3[nH]nc(F)c3c2)c2ccc(/C=C/C(=O)O)nc2C)C2CCC2)cn1` [Example 140, (E)-3-(5-((Z)-2-Cyclobutyl-1-(3-fluoro-1H-indazol-5-yl)-2-(6-methoxy-4-methylpyridin-3-yl)vinyl)-6-methylpyridin-2-yl)acrylic acid], in assay [1], the “MCF7 Viability Assay Max Response” value is given as “++ (++ = a single % value ≧ 40%)” and the IC50 was not above 100 nM. In assay [2], the Emax was not below 40% and the DC50 is not above 100 nM.
As for `O=C(O)/C=C/c1ccc(/C(=C(\c2ccccn2)C2CCC2)c2ccc3[nH]nc(F)c3c2)cc1` [Example 141, (E)-3-(4-((E)-2-Cyclobutyl-1-(3-fluoro-1H-indazol-5-yl)-2-(pyridin-2-yl)vinyl)phenyl)acrylic acid], in assay [1], the “MCF7 Viability Assay Max Response” value is “++ (++ = a single % value ≧ 40%)” and the IC50 is not above 100 nM. In assay [2], the Emax was not below 40% and the DC50 was not above 100 nM.
In the case of `O=C(O)/C=C/c1ccc(/C(=C(\c2ncccc2F)C2CCC2)c2ccc3[nH]nc(F)c3c2)cc1` [Example 142, (E)-3-(4-((E)-2-Cyclobutyl-1-(3-fluoro-1H-indazol-5-yl)-2-(3-fluoropyridin-2-yl)vinyl)phenyl)acrylic acid], in assay [1], the “MCF7 Viability Assay Max Response” value was “++ (++ = a single % value ≧ 40%)” and the IC50 is not above 100 nM. Besides, in assay [2], the Emax is not below 40% and the DC50 is not above 100 nM.
Turning to `O=C(O)/C=C/c1ccc(/C(=C(\c2ncccc2Cl)C2CCC2)c2ccc3[nH]nc(F)c3c2)cc1` [Example 143, (E)-3-(4-((E)-2-(3-Chloropyridin-2-yl)-2-cyclobutyl-1-(3-fluoro-1H-indazol-5-yl)vinyl)phenyl)acrylic acid], in assay [1], the “MCF7 Viability Assay Max Response” value is reported as “++ (++ = a single % value ≧ 40%)” and the half-inhibitory concentration (IC50) is not above 100 nM. Further, in assay [2], the Emax is not below 40% and the DC50 is not above 100 nM.
Consider `Cc1cccnc1/C(=C(\c1ccc(/C=C/C(=O)O)cc1)c1ccc2[nH]nc(F)c2c1)C1CCC1` [Example 144, (E)-3-(4-((E)-2-Cyclobutyl-1-(3-fluoro-1H-indazol-5-yl)-2-(3-methylpyridin-2-yl)vinyl)phenyl)acrylic acid], for which, in assay [1], the “MCF7 Viability Assay Max Response” value was “++ (++ = a single % value ≧ 40%)” and the IC50 was not above 100 nM. Moreover, in assay [2], the Emax was not below 40% and the DC50 is not above 100 nM.
`O=C(O)/C=C/c1ccc(/C(=C(\c2ncccc2C(F)(F)F)C2CCC2)c2ccc3[nH]nc(F)c3c2)cc1` [Example 145, (E)-3-(4-((E)-2-Cyclobutyl-1-(3-fluoro-1H-indazol-5-yl)-2-(3-(trifluoromethyl)pyridin-2-yl)vinyl)phenyl)acrylic acid]: in assay [1], the “MCF7 Viability Assay Max Response” value is recorded as “++ (++ = a single % value ≧ 40%)” and the IC50 is not above 100 nM. Further, in assay [2], the Emax was not below 40% and the DC50 is not above 100 nM.
Regarding `O=C(O)/C=C/c1ccc(/C(=C(\c2ncc(Cl)cc2Cl)C2CCC2)c2ccc3[nH]nc(F)c3c2)cc1` [Example 146, (E)-3-(4-((E)-2-Cyclobutyl-2-(3,5-dichloropyridin-2-yl)-1-(3-fluoro-1H-indazol-5-yl)vinyl)phenyl)acrylic acid], in assay [1], the “MCF7 Viability Assay Max Response” value was “++ (++ = a single % value ≧ 40%)” and the concentration for half-maximal inhibition (IC50) is not above 100 nM. In assay [2], the Emax was not below 40% and the DC50 was not above 100 nM.
On to `COc1cccc(/C(=C(\c2ccc(/C=C/C(=O)O)cc2)c2ccc3[nH]nc(F)c3c2)C2CCC2)n1` [Example 147, (E)-3-(4-((E)-2-Cyclobutyl-1-(3-fluoro-1H-indazol-5-yl)-2-(6-methoxypyridin-2-yl)vinyl)phenyl)acrylic acid], for which, in assay [1], the “MCF7 Viability Assay Max Response” value is given as “++ (++ = a single % value ≧ 40%)” and the IC50 was not above 100 nM. In assay [2], the Emax is not below 40% and the DC50 was not above 100 nM.
In the case of `N#Cc1n[nH]c2ccc(/C(=C(/c3ccccc3)C3CCC3)c3ccc(/C=C/C(=O)O)cc3)cc12` [Example 148, (E)-3-(4-((E)-1-(3-Cyano-1H-indazol-5-yl)-2-cyclobutyl-2-phenylvinyl)phenyl)acrylic acid], in assay [1], the “MCF7 Viability Assay Max Response” value is “++ (++ = a single % value ≧ 40%)” and the IC50 is not above 100 nM. Besides, in assay [2], the Emax was not below 40% and the DC50 was not above 100 nM.
Take `Cc1sccc1/C(=C(\c1ccc(/C=C/C(=O)O)cc1)c1ccc2[nH]nc(F)c2c1)C1CCC1` [Example 149, (E)-3-(4-((E)-2-Cyclobutyl-1-(3-fluoro-1H-indazol-5-yl)-2-(2-methylthiophen-3-yl)vinyl)phenyl)acrylic acid]: in assay [1], the “MCF7 Viability Assay Max Response” value is “++ (++ = a single % value ≧ 40%)” and the IC50 was not above 100 nM. In assay [2], the Emax was not below 40% and the DC50 is not above 100 nM.
Turning to `Cc1cc(/C(=C(\c2ccc(/C=C/C(=O)O)cc2)c2ccc3[nH]nc(F)c3c2)C2CCC2)c(C)s1` [Example 150, (E)-3-(4-((E)-2-Cyclobutyl-2-(2,5-dimethylthiophen-3-yl)-1-(3-fluoro-1H-indazol-5-yl)vinyl)phenyl)acrylic acid], in assay [1], the “MCF7 Viability Assay Max Response” value is on record as “++ (++ = a single % value ≧ 40%)” and the IC50 was not above 100 nM. In assay [2], the Emax was not below 40% and the DC50 is not above 100 nM.

For the origin of these results see patent US9499538B2, “Estrogen receptor modulators and uses thereof” (Seragon Pharmaceuticals, Inc., priority 2012, dated 2016).
